Laboratory results published in publication PMC5863483, “Low HLA binding of diabetes-associated CD8+ T-cell epitopes is increased by post translational modifications” (BMC Immunology, 2018).
*1 amine or outer side, *2 acyl side, *3 side chain or, on linkers, in order; H or OH if unused. Where a SMILES comes first, the peptide text is derived from it. [ ]: non-standard residue; d: D form. Tyr(3-Cl) = N[C@@H](Cc1ccc(O)c(Cl)c1)C(=O)O; γGlu = O=C(O)[C@H](CCC(=O)[*:2])N[*:1]; βAsp = O=C(O)[C@H](CC(=O)[*:2])N[*:1]; Cya = N[C@@H](CS(=O)(=O)O)C(=O)O; Cit = NC(=O)NCCC[C@H](N)C(=O)O

Target: HLA-A*02:01 (Homo sapiens, UniProt P04439, D140Y/D185E/D98H/E176V/E277Q/G131W/G231S/I119V/I121R/I166T/I218V/L300P/L318F/N151K/N90K/P208A/P217A/Q86G/Q94H/R138H/R169H/T345S)
Assay: HLA-peptide competition binding assay, A*02:01
Details: not given

SMILES | IC50 [nM]
CC(C)C[C@H](NC(=O)[C@H](Cc1c[nH]cn1)NC(=O)[C@H](CO)NC(=O)CNC(=O)[C@H](CS(=O)(=O)O)NC(=O)[C@H](CC(C)C)NC(=O)[C@@H](N)Cc1c[nH]cn1)C(=O)N[C@H](C(=O)N[C@@H](CCC(=O)O)C(=O)N[C@@H](C)C(=O)O)C(C)C [HLBGSHLVEA] (H-HL[Cya]GSHLVEA-OH) | 6210

Same assay, conditions: increase of A*02:01 binding of the modified peptide compared to the WT peptide

Fold increase [fold] | SMILES
3.21 | CC(C)C[C@H](NC(=O)[C@H](C)N)C(=O)N[C@@H](Cc1ccc(O)c(Cl)c1)C(=O)N[C@@H](CC(C)C)C(=O)N[C@H](C(=O)N[C@@H](CS)C(=O)NCC(=O)N[C@@H](CCC(=O)O)C(=O)N[C@@H](CCCNC(=N)N)C(=O)NCC(=O)O)C(C)C [ALJLVCGERG]
2.13 | CC(C)C[C@H](NC(=O)[C@@H](N)Cc1ccc(O)c(Cl)c1)C(=O)N[C@H](C(=O)N[C@@H](CS)C(=O)NCC(=O)N[C@@H](CCC(=O)O)C(=O)N[C@@H](CCCNC(=N)N)C(=O)NCC(=O)N[C@@H](Cc1ccccc1)C(=O)O)C(C)C [JLVCGERGF] (H-[Tyr(3-Cl)]LVCGERGF-OH; N-terminus and C-terminus assumed)

Same assay, conditions: post-translationally modified insulin peptide; competition binding assay; a dash indicates IC50 >40,000 nM; read-out: A*02:01 binding (IC50 nM) Modified

SMILES | IC50 [nM]
C[C@@H](O)[C@H](NC(=O)[C@H](Cc1ccc(O)cc1)NC(=O)[C@H](Cc1ccc(O)cc1)NC(=O)[C@H](Cc1ccc(O)cc1)NC(=O)CNC(=O)[C@H](CCCNC(=N)N)NC(=O)[C@H](CCC(=O)O)NC(=O)CNC(=O)[C@@H](N)CS(=O)(=O)O)C(=O)O [BGERGYYYT] (H-[Cya]GERGYYYT-OH; N-terminus and C-terminus assumed) | > 40000
CC(C)C[C@H](NC(=O)[C@H](Cc1c[nH]cn1)NC(=O)[C@H](CCC(N)=O)NC(=O)[C@H](CC(N)=O)NC(=O)[C@@H](NC(=O)[C@@H](N)Cc1ccccc1)C(C)C)C(=O)N[C@@H](CS(=O)(=O)O)C(=O)NCC(=O)N[C@@H](CO)C(=O)O [FVNQHLBGS] (H-FVNQHL[Cya]GS-OH; N-terminus and C-terminus assumed) | > 40000
CC(C)C[C@H](NC(=O)[C@H](Cc1c[nH]cn1)NC(=O)CC[C@H](NC(=O)C[C@H](NC(=O)[C@@H](NC(=O)[C@@H](N)Cc1ccccc1)C(C)C)C(=O)O)C(=O)O)C(=O)N[C@@H](CS)C(=O)NCC(=O)N[C@@H](CO)C(=O)N[C@@H](Cc1c[nH]cn1)C(=O)O [FVOZHLCGSH] (H-FV[βAsp][γGlu]HLCGSH-OH; N-terminus and C-terminus assumed) | > 40000
CC(C)C[C@H](NC(=O)[C@H](Cc1c[nH]cn1)NC(=O)CC[C@H](NC(=O)C[C@H](NC(=O)[C@@H](NC(=O)[C@@H](N)Cc1ccccc1)C(C)C)C(=O)O)C(=O)O)C(=O)N[C@@H](CS)C(=O)NCC(=O)N[C@@H](CO)C(=O)O [FVOZHLCGS] (H-FV[βAsp][γGlu]HLCGS-OH; N-terminus and C-terminus assumed) | > 40000
CC(C)C[C@H](NC(=O)[C@H](Cc1c[nH]cn1)NC(=O)[C@H](CO)NC(=O)CNC(=O)[C@H](CS(=O)(=O)O)NC(=O)[C@H](CC(C)C)NC(=O)[C@@H](N)Cc1c[nH]cn1)C(=O)N[C@H](C(=O)N[C@@H](CCC(=O)O)C(=O)O)C(C)C [HLBGSHLVE] (H-HL[Cya]GSHLVE-OH; N-terminus and C-terminus assumed) | > 40000
CC(C)C[C@H](N)C(=O)N[C@H](C(=O)N[C@@H](CS(=O)(=O)O)C(=O)NCC(=O)N[C@@H](CCC(=O)O)C(=O)N[C@@H](CCCNC(=N)N)C(=O)NCC(=O)N[C@@H](Cc1ccc(O)cc1)C(=O)N[C@@H](Cc1ccc(O)cc1)C(=O)N[C@@H](Cc1ccc(O)cc1)C(=O)O)C(C)C [LVBGERGYYY] (H-LV[Cya]GERGYYY-OH; N-terminus and C-terminus assumed) | > 40000
CC(C)C[C@H](N)C(=O)N[C@H](C(=O)N[C@@H](CS(=O)(=O)O)C(=O)NCC(=O)N[C@@H](CCC(=O)O)C(=O)N[C@@H](CCCNC(=N)N)C(=O)NCC(=O)N[C@@H](Cc1ccc(O)cc1)C(=O)N[C@@H](Cc1ccc(O)cc1)C(=O)O)C(C)C [LVBGERGYY] (H-LV[Cya]GERGYY-OH; N-terminus and C-terminus assumed) | > 40000

The remaining lines, values ahead:

IC50 [nM] | SMILES
> 40000 | CC(C)C[C@H](NC(=O)[C@H](CC(=O)O)NC(=O)[C@H](CCC(=O)O)NC(=O)[C@H](C)NC(=O)[C@H](CCC(=O)O)NC(=O)[C@@H](N)CCCNC(N)=O)C(=O)N[C@@H](CCC(N)=O)C(=O)N[C@H](C(=O)NCC(=O)O)C(C)C (H-[Cit]EAEDLQVG-OH; N-terminus and C-terminus assumed)
> 40000 | CC(C)C[C@H](NC(=O)[C@H](CC(=O)O)NC(=O)[C@H](CCC(=O)O)NC(=O)[C@H](C)NC(=O)[C@H](CCC(=O)O)NC(=O)[C@@H](N)CCCNC(N)=O)C(=O)N[C@@H](CCC(N)=O)C(=O)N[C@H](C(=O)NCC(=O)N[C@@H](CCC(N)=O)C(=O)O)C(C)C (H-[Cit]EAEDLQVGQ-OH; N-terminus and C-terminus assumed)
> 40000 | CC(C)C[C@H](NC(=O)[C@H](CC(=O)O)NC(=O)[C@H](CCC(=O)O)NC(=O)[C@H](C)NC(=O)[C@H](CCC(=O)O)NC(=O)[C@H](CCCNC(N)=O)NC(=O)[C@@H](N)CCCNC(N)=O)C(=O)N[C@@H](CCC(N)=O)C(=O)N[C@H](C(=O)O)C(C)C (H-[Cit][Cit]EAEDLQV-OH; N-terminus and C-terminus assumed)
> 40000 | CC(C)C[C@H](NC(=O)[C@H](CC(=O)O)NC(=O)[C@H](CCC(=O)O)NC(=O)[C@H](C)NC(=O)[C@H](CCC(=O)O)NC(=O)[C@H](CCCNC(N)=O)NC(=O)[C@@H](N)CCCNC(N)=O)C(=O)N[C@@H](CCC(N)=O)C(=O)N[C@H](C(=O)NCC(=O)O)C(C)C (H-[Cit][Cit]EAEDLQVG-OH; N-terminus and C-terminus assumed)
> 40000 | CC(C)C[C@H](NC(=O)[C@H](C)NC(=O)[C@H](CCC(=O)O)NC(=O)[C@@H](NC(=O)[C@H](CC(C)C)NC(=O)[C@H](Cc1c[nH]cn1)NC(=O)[C@H](CO)NC(=O)CNC(=O)[C@@H](N)CS(=O)(=O)O)C(C)C)C(=O)O [BGSHLVEAL] (H-[Cya]GSHLVEAL-OH; N-terminus and C-terminus assumed)
> 40000 | CC(C)C[C@H](NC(=O)[C@H](Cc1c[nH]cn1)NC(=O)[C@H](CCC(N)=O)NC(=O)[C@H](CC(N)=O)NC(=O)[C@@H](NC(=O)[C@@H](N)Cc1ccccc1)C(C)C)C(=O)N[C@@H](CS(=O)(=O)O)C(=O)NCC(=O)N[C@@H](CO)C(=O)N[C@@H](Cc1c[nH]cn1)C(=O)O [FVNQHLBGSH] (H-FVNQHL[Cya]GSH-OH; N-terminus and C-terminus assumed)
> 40000 | CC(C)C[C@H](NC(=O)[C@H](C)NC(=O)[C@H](CCC(=O)O)NC(=O)[C@@H](NC(=O)[C@H](CC(C)C)NC(=O)[C@H](Cc1c[nH]cn1)NC(=O)[C@H](CO)NC(=O)CNC(=O)[C@H](CS(=O)(=O)O)NC(=O)[C@@H](N)CC(C)C)C(C)C)C(=O)O [LBGSHLVEAL] (H-L[Cya]GSHLVEAL-OH; N-terminus and C-terminus assumed)

Same assay, conditions: post-translationally modified insulin-derived peptide; radiolabeled ligand competition, purified MHC, two-day incubation, three or more independent experiments; read-out: A*02:01 binding, Modified

IC50 [nM] | SMILES
8040 | CC(C)C[C@H](NC(=O)[C@H](C)NC(=O)[C@H](CCC(=O)O)NC(=O)[C@@H](NC(=O)[C@H](CC(C)C)NC(=O)[C@H](Cc1c[nH]cn1)NC(=O)[C@H](CO)NC(=O)CNC(=O)[C@@H](N)CS(=O)(=O)O)C(C)C)C(=O)N[C@@H](Cc1ccc(O)cc1)C(=O)O [BGSHLVEALY] (H-[Cya]GSHLVEALY-OH)

Same assay, conditions: read-out: A*02:01 binding (IC50 nM) Modified

SMILES | IC50 [nM]
CC(C)C[C@H](NC(=O)[C@H](CC(C)C)NC(=O)[C@H](C)NC(=O)[C@H](CC(C)C)NC(=O)[C@H](CC(C)C)NC(=O)[C@@H]1CCCN1C(=O)[C@H](CC(C)C)NC(=O)[C@H](CC(C)C)NC(=O)[C@@H](N)CCCNC(N)=O)C(=O)O (H-[Cit]LLPLLALL-OH) | 83
CC(C)C[C@H](NC(=O)[C@H](C)NC(=O)[C@H](CC(C)C)NC(=O)[C@H](CC(C)C)NC(=O)[C@@H]1CCCN1C(=O)[C@H](CC(C)C)NC(=O)[C@H](CC(C)C)NC(=O)[C@@H](N)CCCNC(N)=O)C(=O)N[C@@H](CC(C)C)C(=O)N[C@@H](C)C(=O)O (H-[Cit]LLPLLALLA-OH) | 70
CSCC[C@H](N)C(=O)N[C@@H](CCCNC(N)=O)C(=O)N[C@@H](CC(C)C)C(=O)N[C@@H](CC(C)C)C(=O)N1CCC[C@H]1C(=O)N[C@@H](CC(C)C)C(=O)N[C@@H](CC(C)C)C(=O)N[C@@H](C)C(=O)N[C@@H](CC(C)C)C(=O)O [MULLPLLAL] (H-M[Cit]LLPLLAL-OH) | 1860

Second part, the compound after the results:

IC50 [nM] | SMILES
34500 | CC[C@H](C)[C@H](NC(=O)CNC(=O)[C@H](CCCNC(N)=O)NC(=O)[C@H](CCCCN)NC(=O)[C@H](CCC(N)=O)NC(=O)[C@H](CC(C)C)NC(=O)[C@H](CO)NC(=O)CN)C(=O)N[C@H](C(=O)N[C@@H](CCC(=O)O)C(=O)O)C(C)C [GSLQKUGIVE] (H-GSLQK[Cit]GIVE-OH)
14800 | CC(C)C[C@H](NC(=O)[C@H](Cc1c[nH]cn1)NC(=O)[C@H](CO)NC(=O)CNC(=O)[C@H](CS(=O)(=O)O)NC(=O)[C@@H](N)CC(C)C)C(=O)N[C@H](C(=O)N[C@@H](CCC(=O)O)C(=O)N[C@@H](C)C(=O)O)C(C)C [LBGSHLVEA] (H-L[Cya]GSHLVEA-OH)
35500 | CC(C)C[C@H](NC(=O)[C@H](Cc1ccc(O)cc1)NC(=O)[C@@H](N)CC(C)C)C(=O)N[C@H](C(=O)N[C@@H](CS(=O)(=O)O)C(=O)NCC(=O)N[C@@H](CCC(=O)O)C(=O)N[C@@H](CCCNC(=N)N)C(=O)NCC(=O)N[C@@H](Cc1ccc(O)cc1)C(=O)O)C(C)C [LYLVBGERGY] (H-LYLV[Cya]GERGY-OH)

Same assay, conditions: read-out: A*02:01 binding (IC50 nM) Modified; post-translationally modified insulin peptide; competition binding assay; a dash indicates IC50 >40,000 nM

SMILES | IC50 [nM]
C[C@@H](O)[C@H](NC(=O)[C@H](Cc1ccc(O)cc1)NC(=O)[C@H](Cc1ccc(O)cc1)NC(=O)[C@H](Cc1ccc(O)cc1)NC(=O)CNC(=O)[C@H](CCCNC(=N)N)NC(=O)[C@H](CCC(=O)O)NC(=O)CNC(=O)[C@@H](N)CS(=O)(=O)O)C(=O)N1CCC[C@H]1C(=O)O [BGERGYYYTP] (H-[Cya]GERGYYYTP-OH; N-terminus and C-terminus assumed) | > 40000
